Laboratory results taken from patent US8350027B2, “Dual-acting pyrazole antihypertensive agents” (Theravance, Inc., priority 2009, dated 2013).

What was measured:
NEP enzyme = target: T1, NEP enzyme (Homo sapiens, UniProt P08473); assay: NEP enzyme inhibition assay (fluorogenic peptide substrate); type: biochemical; conditions: values given as lower bounds; * = prodrugs, may not exhibit NEP activity in an in vitro assay; read-out: NEP pIC50 (converted)
T1 construct: purchased R&D Systems, Minneapolis, Minn; 1182-ZN
T1 sequence (P08473 52-750 limits assumed): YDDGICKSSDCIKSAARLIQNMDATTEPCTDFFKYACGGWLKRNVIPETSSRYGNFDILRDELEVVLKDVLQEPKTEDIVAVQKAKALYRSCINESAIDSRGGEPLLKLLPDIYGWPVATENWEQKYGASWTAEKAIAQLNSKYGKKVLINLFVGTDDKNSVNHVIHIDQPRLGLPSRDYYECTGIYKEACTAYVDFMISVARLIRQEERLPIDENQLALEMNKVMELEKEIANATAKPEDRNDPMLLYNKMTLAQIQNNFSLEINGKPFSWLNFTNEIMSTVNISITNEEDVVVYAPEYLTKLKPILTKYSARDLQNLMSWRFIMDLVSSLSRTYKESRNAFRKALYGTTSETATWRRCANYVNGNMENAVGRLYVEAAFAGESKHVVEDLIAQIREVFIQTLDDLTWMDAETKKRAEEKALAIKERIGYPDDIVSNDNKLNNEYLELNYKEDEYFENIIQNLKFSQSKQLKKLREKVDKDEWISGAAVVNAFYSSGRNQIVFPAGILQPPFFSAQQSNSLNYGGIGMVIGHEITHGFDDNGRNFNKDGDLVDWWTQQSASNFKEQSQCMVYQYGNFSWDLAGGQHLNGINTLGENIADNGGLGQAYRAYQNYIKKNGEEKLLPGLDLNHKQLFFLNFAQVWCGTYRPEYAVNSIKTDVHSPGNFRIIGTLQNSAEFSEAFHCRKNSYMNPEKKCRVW
Method: B. In Vitro Assays for the Quantitation of Inhibitor Potencies (IC50) at Human and Rat NEP, and Human ACE
The inhibitory activities of compounds at human and rat NEP and human ACE were determined using in vitro assays as described below.
Recombinant human NEP and recombinant human ACE were obtained commercially (R&D Systems, Minneapolis, Minn., catalog numbers 1182-ZN and 929-ZN, respectively). The fluorogenic peptide substrate Mca-BK2 (Mca-Arg-Pro-Pro-Gly-Phe-Ser-Ala-Phe-Lys(Dnp)-OH; Johnson et al. (2000) Anal. Biochem. 286: 112-118) was used for the human NEP and ACE assays, and Mca-RRL (Mca-DArg-Arg-Leu-(Dnp)-OH; Medeiros et al. (1997) Braz. J. Med. Biol. Res. 30:1157-1162) was used for the rat NEP assay (both from Anaspec, San Jose, Calif.).
The assays were performed in 384-well white opaque plates at room temperature using the respective fluorogenic peptides at a concentration of 10 μM in assay buffer (50 mM Tris/HCl at 25° C., 100 mM NaCl, 0.01% Tween-20, 1 μM Zn, 0.025% BSA). […] The rat NEP enzyme preparation was used at a concentration that yielded quantitative proteolysis of 3 μM of Mca-RRL within 20 minutes at room temperature.
Test compounds were diluted to 12 concentrations from 10 μM to 20 pM in Assay Buffer. Assays were started by adding 25 μL of enzyme to 12.5 μL of test compound at each of the 12 concentrations. Test compounds were allowed to equilibrate with the enzyme for 10 minutes before 12.5 μL of the fluorogenic substrates were added to initiate the reaction. Reactions were terminated by the addition of 10 μL of 3.6% glacial acetic acid after 20 minutes of incubation.
For sulfhydryl-containing test compounds, the test compounds may be diluted in Assay Buffer containing a 400 μM concentration of tris(2-carboxyethyl)phosphine hydrochloride (Thermo Scientific, Rockford, Ill.) (TCEP). The test compounds are then incubated for 40 minutes at room temperature (to allow for dimer cleavage) before adding the enzyme. Test compounds are then allowed to equilibrate with the enzyme for 20 minutes before adding the fluorogenic substrates. Reactions are terminated as above.
Plates were read on a fluorometer with excitation and emission wavelengths set to 320 nm and 405 nm, respectively. Raw data (relative fluorescence units) were normalized to % activity from the average high readings (no inhibition, 100% enzyme activity) and average low readings (full inhibition, highest inhibitor concentration, 0% enzyme activity) using three standard NEP and ACE inhibitors, respectively. Nonlinear regression of the normalized data was performed using a one site competition model (GraphPad Software, Inc., San Diego, Calif.). Data were reported as pIC50 values.

human AT1 receptor = target: T2, human AT1 receptor (Homo sapiens, UniProt P30556); assay: AT1 radioligand binding assay (displacement of [Eu]AngII); conditions: membranes of CHO-K1 cells expressing cloned human AT1 receptor; values given as lower bounds; read-out: AT1 pKi (converted)
T2 construct: expressed in transfected cells; host or cells: CHO-K1
T2 sequence (P30556 1-359): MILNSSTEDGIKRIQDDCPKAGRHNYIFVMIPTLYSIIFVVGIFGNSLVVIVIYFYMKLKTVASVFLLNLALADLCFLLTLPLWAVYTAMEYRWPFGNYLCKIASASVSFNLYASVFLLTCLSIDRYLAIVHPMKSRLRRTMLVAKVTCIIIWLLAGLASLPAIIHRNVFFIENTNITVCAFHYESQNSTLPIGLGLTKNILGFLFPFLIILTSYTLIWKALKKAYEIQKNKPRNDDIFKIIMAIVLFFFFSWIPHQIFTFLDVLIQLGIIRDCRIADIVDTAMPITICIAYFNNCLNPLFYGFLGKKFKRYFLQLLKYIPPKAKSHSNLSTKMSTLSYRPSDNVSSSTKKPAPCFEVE
Method: A. AT1 and AT2 Radioligand Binding Assays
These in vitro assays were used to assess the ability of test compounds to bind to the AT1 and the AT2 receptors.
Membrane Preparation from Cells Expressing Human AT1 or AT2 Receptors
Chinese hamster ovary (CHO-K1) derived cell lines stably expressing the cloned human AT1 or AT2 receptors, respectively, were grown in HAM's-F12 medium supplemented with 10% fetal bovine serum, 10 μg/ml penicillin/streptomycin, and 500 μg/ml geneticin in a 5% CO2 humidified incubator at 37° C. AT2 receptor expressing cells were grown in the additional presence of 100 nM PD123,319 (AT2 antagonist). When cultures reached 80-95% confluence, the cells were washed thoroughly in PBS and lifted with 5 mM EDTA. Cells were pelleted by centrifugation and snap frozen in MeOH-dry ice and stored at −80° C. until further use.
For membrane preparation, cell pellets were resuspended in lysis buffer (25 mM Tris/HCl pH 7.5 at 4° C., 1 mM EDTA, and one tablet of Complete Protease Inhibitor Cocktail Tablets with 2 mM EDTA per 50 mL buffer (Roche cat.#1697498, Roche Molecular Biochemicals, Indianapolis, Ind.)) and homogenized using a tight-fitting Dounce glass homogenizer (10 strokes) on ice. The homogenate was centrifuged at 1000×g, the supernatant was collected and centrifuged at 20,000×g. The final pellet was resuspended in membrane buffer (75 mM Tris/HCl pH 7.5, 12.5 mM MgCl2, 0.3 mM EDTA, 1 mM EGTA, 250 mM sucrose at 4° C.) and homogenized by extrusion through a 20G gauge needle. Protein concentration of the membrane suspension was determined by the method described in Bradford (1976) Anal Biochem. 72:248-54. Membranes were snap frozen in MeOH-dry ice and stored at −80° C. until further use.
Ligand Binding Assay to Determine Compound Affinities for the Human AT1 and AT2 Angiotensin Receptors
Binding assays were performed in 96-well Acrowell filter plates (Pall Inc., cat.#5020) in a total assay volume of 100 μL with 0.2 μg membrane protein for membranes containing the human AT1 receptor, or 2 μg membrane protein for membranes containing the human AT2 receptor in assay buffer (50 mM Tris/HCl pH 7.5 at 20° C., 5 mM MgCl2, 25 μM EDTA, 0.025% BSA). Saturation binding studies for determination of Kd values of the ligand were done using N-terminally Europium-labeled angiotensin-II ([Eu]AngII, H-(Eu-N^1)-Ahx-Asp-Arg-Val-Tyr-Ile-His-Pro-Phe-OH; PerkinElmer, Boston, Mass.) at 8 different concentrations ranging from 0.1 nM to 30 nM. […] Drugs were dissolved to a concentration of 1 mM in DMSO and from there serially diluted into assay buffer. Non-specific binding was determined in the presence of 10 μM unlabeled angiotensin-II. Assays were incubated for 120 minutes in the dark, at room temperature or 37° C., and binding reactions were terminated by rapid filtration through the Acrowell filter plates followed by three washes with 200 μL ice cold wash buffer (50 mM Tris/HCl pH 7.5 at 4° C., 5 mM MgCl2) using a Waters filtration manifold. Plates were tapped dry and incubated with 50 μl DELFIA Enhancement Solution (PerkinElmer cat.#4001-0010) at room temperature for 5 minutes on a shaker. Filter-bound [Eu]AngII was quantitated immediately on a Fusion plate reader (PerkinElmer) using Time Resolved Fluorescence (TRF). Binding data were analyzed by nonlinear regression analysis with the GraphPad Prism Software package (GraphPad Software, Inc., San Diego, Calif.) using the 3-parameter model for one-site competition. The BOTTOM (curve minimum) was fixed to the value for nonspecific binding, as determined in the presence of 10 μM angiotensin II. Ki values for drugs were calculated from observed IC50 values and the Kd value of [Eu]AngII according to the Cheng-Prusoff equation described in Cheng et al. (1973) Biochem Pharmacol. 22 (23):3099-108. Selectivities of test compounds for the AT1 receptor over the AT2 receptor were calculated as the ratio of AT2Ki/AT1Ki. […]

| SMILES | IC50 (NEP enzyme) | Ki (human AT1 receptor) |
| --- | --- | --- |
| CCCc1cc(C(=O)N[C@H](Cc2ccccc2)[C@@H](O)C(=O)O)nn1Cc1ccc(-c2ccccc2-c2nnn[nH]2)cc1 [Example 1, (2R,3R)-3-(1-((2′-(1H-tetrazol-5-yl)biphenyl-4-yl)methyl)-5-propyl-1H-pyrazole-3-carboxamido)-2-hydroxy-4-phenylbutanoic Acid] | ≤ 1000 nM | ≤ 10 nM |
| CCCc1cc(C(=O)N[C@@H](CC(=O)O)Cc2ccccc2)nn1Cc1ccc(-c2ccccc2-c2nnn[nH]2)cc1 [Example 2, (R)-4-Phenyl-3-({5-propyl-1-[2′-(1H-tetrazol-5-yl)-biphenyl-4-ylmethyl]-1H-pyrazole-3-carbonyl}amino)butyric Acid] | ≤ 10000 nM | ≤ 10 nM |
| CCOc1cc(C(=O)N[C@@H](CS)Cc2ccccc2)nn1Cc1ccc(-c2ccccc2-c2nnn[nH]2)cc1F [Example 3-1, 5-Ethoxy-1-[3-fluoro-2′-(1H-tetrazol-5-yl)biphenyl-4-ylmethyl]-1H-pyrazole-3-carboxylic acid ((R)-1-benzyl-2-mercaptoethyl)amide] | ≤ 100 nM | ≤ 10 nM |
| CCCc1cc(C(=O)N[C@@H](CS)Cc2ccccc2)nn1Cc1ccc(-c2ccccc2-c2nnn[nH]2)cc1F [Example 3-2, 1-[3-Fluoro-2′-(1H-tetrazol-5-yl)biphenyl-4-ylmethyl]-5-propyl-1H-pyrazole-3-carboxylic acid ((R)-1-benzyl-2-mercaptoethyl)amide] | ≤ 100 nM | ≤ 10 nM |
| CCCc1cc(C(=O)N[C@@H](CS)CC(C)C)nn1Cc1ccc(-c2ccccc2-c2nnn[nH]2)cc1F [Example 3-3, 1-[3-Fluoro-2′-(1H-tetrazol-5-yl)biphenyl-4-ylmethyl]-5-propyl-1H-pyrazole-3-carboxylic acid ((R)-1-mercaptomethyl-3-methylbutyl)amide] | ≤ 100 nM | ≤ 100 nM |
| CCOc1cc(C(=O)N[C@@H](CS)Cc2ccccc2)nn1Cc1ccc(-c2ccccc2-c2nnn[nH]2)cc1 [Example 3-4, 5-Ethoxy-1-[2′-(1H-tetrazol-5-yl)biphenyl-4-ylmethyl]-1H-pyrazole-3-carboxylic acid ((R)-1-benzyl-2-mercaptoethyl)amide] | ≤ 100 nM | ≤ 10 nM |
| CCOc1cc(C(=O)N[C@@H](CS)CC(C)C)nn1Cc1ccc(-c2ccccc2-c2nnn[nH]2)cc1 [Example 3-5, 5-Ethoxy-1-[2′-(1H-tetrazol-5-yl)biphenyl-4-ylmethyl]-1H-pyrazole-3-carboxylic acid ((R)-1-mercaptomethyl-3-methylbutyl)amide] | ≤ 100 nM | ≤ 100 nM |
| CCCc1cc(C(=O)N[C@@H](CS)Cc2ccccc2)nn1Cc1ccc(-c2ccccc2-c2nnn[nH]2)cc1 [Example 3-6, 5-Propyl-1-[2′-(1H-tetrazol-5-yl)biphenyl-4-ylmethyl]-1H-pyrazole-3-carboxylic acid ((R)-1-benzyl-2-mercaptoethyl)amide] | ≤ 100 nM | ≤ 10 nM |
| CCCc1cc(C(=O)N[C@@H](CS)CC(C)C)nn1Cc1ccc(-c2ccccc2-c2nnn[nH]2)cc1 [Example 3-7, 5-Propyl-1-[2′-(1H-tetrazol-5-yl)biphenyl-4-ylmethyl]-1H-pyrazole-3-carboxylic acid ((R)-1-mercaptomethyl-3-methylbutyl)amide] | ≤ 100 nM | ≤ 10 nM |
| CCOc1cc(C(=O)N[C@H](Cc2ccccc2)[C@@H](O)C(=O)O)nn1Cc1ccc(-c2ccccc2-c2nnn[nH]2)cc1F [Example 3-8, (2R,3R)-3-({5-Ethoxy-1-[3-fluoro-2′-(1H-tetrazol-5-yl)biphenyl-4-ylmethyl]-1H-pyrazole-3-carbonyl}amino)-2-hydroxy-4-phenylbutyric acid] | ≤ 1000 nM | ≤ 100 nM |
| CCOc1cc(C(=O)N[C@H](Cc2ccccc2)[C@@H](O)C(=O)O)nn1Cc1ccc(-c2ccccc2-c2nnn[nH]2)cc1 [Example 3-9, (2R,3R)-3-({5-Ethoxy-1-[2′-(1H-tetrazol-5-yl)biphenyl-4-ylmethyl]-1H-pyrazole-3-carbonyl}amino)-2-hydroxy-4-phenylbutyric acid] | ≤ 1000 nM | ≤ 100 nM |
| CCCc1cc(C(=O)N[C@H](Cc2ccccc2)[C@@H](O)C(=O)O)nn1Cc1ccc(-c2ccccc2-c2nnn[nH]2)c(F)c1 [Example 3-10, (2R,3R)-3-(1-((2-Fluoro-2′-(1H-tetrazol-5-yl)biphenyl-4-yl)methyl)-5-propyl-1H-pyrazole-3-carboxamido)-2-hydroxy-4-phenylbutanoic acid] | ≤ 1000 nM | ≤ 10 nM |
| CCCc1cc(C(=O)N[C@@H](CS)Cc2ccccc2)nn1Cc1ccc(-c2ccccc2-c2nnn[nH]2)c(F)c1 [Example 3-11, 1-((2-Fluoro-2′-(1H-tetrazol-5-yl)biphenyl-4-yl)methyl)-N-((R)-1-mercapto-3-phenylpropan-2-yl)-5-propyl-1H-pyrazole-3-carboxamide] | ≤ 100 nM | ≤ 10 nM |
